Laboratory results from patent US20150125589A1, “TASTE-IMPROVING AGENT AND FOOD OR DRINK CONTAINING SAME” (NIPPON SUISAN KAISHA, LTD., priority 2011, published 2015).

How the values were obtained:
[1] = Evaluation method 2: quantitating improvement of unpleasant flavor of potassium chloride as K/Na ratio against standard solutions, chicken stock soup; details: for improvement effect against the unpleasant flavor of potassium chloride: glycoside or aglycone 25 ppm final in standard solution 8, FIG. 17
Method: 1.32 g of Chinese soup stock granules (product name=“Marudori-gara Soup”, manufactured by Ajinomoto K.K., standard nutritional ingredients of 2.5 g of Chinese soup stock granules are shown in Table 1) was dissolved in 70 g of distilled water, and the mixture was filtered through filter paper (filter paper no. 2, manufactured by Advantec Toyo K.K.). Thereafter, 0.63 g of NaCl was added, and water was further added to obtain 100 g of chicken stock soup containing an equivalent of 1.26 percent table salt (Table 2, standard solution 1). The concentration of sodium chloride was decreased in a stepwise manner from the composition of the standard solution 1, and potassium chloride was added to produce multiple chicken stock soups (Table 2, standard solutions 2 to 8). The ratio of potassium chloride to sodium chloride ((potassium chloride concentration/sodium chloride concentration)×100(%), referred to hereinafter as “K/Na ratio”) was changed in standard solutions 1 to 8, and the intensity of the unpleasant flavor (i.e. bitterness, astringent taste, harsh taste, and bitter taste) characteristic of potassium chloride increased as the K/Na ratio value increased. The unpleasant flavor intensity increased in a stepwise manner for standard solutions 1 to 8. Intensity of this unpleasant flavor and detailed taste were evaluated by organoleptic evaluation by an expert panel, and results of evaluation were classified in three stages, i.e. initial taste, middle taste, and aftertaste.
A desired concentration of test solution was added to one of the standard solutions of Table 2 to produce an evaluation solution. At this time, for a test sample containing sodium chloride or potassium chloride, the evaluation solution was adjusted such that the total sodium chloride concentration or total potassium chloride concentration of the evaluation solution was equivalent to the respective standard solution. The standard solutions 1 to 8 of Table 2 are indicated in order of potassium chloride concentration. These evaluation solutions were compared to the standard solution, and the corresponding unpleasant flavor of potassium chloride was expressed as a K/Na ratio. The improvement effect was indicated as higher as the ratio of K/Na ratio obtained by evaluation to actual K/Na ratio decreased.

[2] = Evaluation method 1: expert panel ranking of potassium chloride unpleasant flavor intensity (normalized rank method), chicken stock soup; details: for effect of phospholipid for improvement of unpleasant flavor of potassium chloride: phospholipid 0.02 percent in standard solution 8, FIG. 21
[3] = Unpleasant taste distinguishable concentration of potassium chloride, blind ranking by panel; details: chicken stock soup models, panel n=11; FIG. 28
Method: 1.32 g of Chinese soup stock granules (product name=“Marudori-gara Soup”, manufactured by Ajinomoto K.K., standard nutritional ingredients of 2.5 g of Chinese soup stock granules are shown in Table 1) was dissolved in 70 g of distilled water, and the mixture was filtered through filter paper (filter paper no. 2, manufactured by Advantec Toyo K.K.). Thereafter, 0.63 g of NaCl was added, and water was further added to obtain 100 g of chicken stock soup containing an equivalent of 1.26 percent table salt (Table 2, standard solution 1). The concentration of sodium chloride was decreased in a stepwise manner from the composition of the standard solution 1, and potassium chloride was added to produce multiple chicken stock soups (Table 2, standard solutions 2 to 8). […] Intensity of this unpleasant flavor and detailed taste were evaluated by organoleptic evaluation by an expert panel, and results of evaluation were classified in three stages, i.e. initial taste, middle taste, and aftertaste.
Standard solutions 1 to 7 (with the exception of standard solution 2) were evaluated by a panel (n=11) by blind-testing to determine the order of potassium chloride unpleasant flavor intensity.

Compound | improvement effect against the unpleasant flavor of potassium chloride [1] | effect of phospholipid for improvement of unpleasant flavor of potassium chloride [2] | further results
O=c1cc(-c2ccc(O)cc2)oc2cc(O[C@@H]3O[C@H](CO)[C@@H](O)[C@H](O)[C@H]3O)cc(O)c12 [apigenin 7-glucoside, Apigenin 7-glucoside] | high effect |  | 
O=c1cc(-c2ccc(O)cc2)oc2cc(O)cc(O)c12 [apigenin, Apigenin] | high effect |  | 
O=c1c(-c2ccc(O)cc2)coc2cc(O[C@@H]3O[C@H](CO)[C@@H](O)[C@H](O)[C@H]3O)ccc12 [daidzin, Daidzin] | high effect |  | 
O=c1cc(-c2ccc(O)cc2)oc2cc(O[C@@H]3O[C@H](CO)[C@@H](O)[C@H](O)[C@H]3O[C@@H]3OC[C@](O)(CO)[C@H]3O)cc(O)c12 [fraction 13, apiin] | particularly high effect |  | unpleasant flavor improvement effect of parsley extract fraction relative to its parent solution ([2]; fraction aqueous solution added at 15 percent by weight to standard solution 8, FIG. 12-15): equivalent to that of the evaluation solution 9; added amount at which near maximum unpleasant flavor improvement effect was reached ([1]; 25, 50, 125, 250 ppm in standard solution 8, FIG. 16): ≥ 125 ppm
C[C@@H]1O[C@@H](O[C@H]2[C@H](Oc3cc(O)c4c(c3)O[C@H](c3ccc(O)cc3)CC4=O)O[C@H](CO)[C@@H](O)[C@@H]2O)[C@H](O)[C@H](O)[C@H]1O [naringin, Naringin, reference compound] | improvement effect was not found |  | 
[Cl-].[K+] [potassium chloride] |  |  | K/Na ratio at which unpleasant flavor of potassium chloride was not generally recognized [3]: less than or equal to 57%
Phosphatidic acid [PA, reference compound] |  | low | 
Phosphatidylcholine [PC] |  | high effects | 
Phosphatidylethanolamine [PE] |  | high effects | 
Phosphatidylinositol [PI] |  | high effects | 
Phosphatidylserine [PS] |  | high effects | 
